# Results published in PMC8286840, “Identifying SARS-CoV-2 antiviral compounds by screening for small molecule inhibitors of Nsp3 papain-like protease” (Biochemical Journal, 2021).
# Counter-ions that a name gives are not always drawn. Like-named read-outs stand apart in the source and are kept apart here.
# How the values were obtained:
# [1] = molecular target: T1, SARS-CoV-2 PLpro (nsp3 1564–1878) (Severe acute respiratory syndrome coronavirus 2, UniProt P0DTD1); experiment: biochemical; set-up: FRET-quenched peptide (Pro3) cleavage by PLpro, 10 min pre-incubation, slope over 20 min, normalised to no-compound control; conditions: low concentration screen, read-out: % of control remaining
# [2] = molecular target: T1, SARS-CoV-2 PLpro (nsp3 1564–1878); experiment: biochemical; set-up: FRET-quenched peptide (Pro3) cleavage by PLpro, 10 min pre-incubation, slope over 20 min, normalised to no-compound control; conditions: high concentration screen, read-out: % of control remaining
# Experimental: The plates were organized with columns 3–22 containing the compounds; the remaining columns were used for reaction controls including substrate only and substrate with enzyme but no compound (Figure 3Aii). The PLpro enzyme was pre-incubated with the compounds for 10 min, and then the reaction was initiated by the addition of substrate. […] We incubated the inhibitors with PLpro before the enzymatic reaction so that the slow-binding inhibitors will not be missed out [21]. […] Fluorescence was read on a Spark multimode microplate reader (Tecan) with an excitation wavelength at 330 nm and emission wavelength at 420 nm. […] An amount of 5 µl of the enzyme was pre-incubated with compounds for 10 min before the addition of 15 µl substrate. Fluorescence was monitored at 2 min for 20 min with 3 min intervals giving a total of seven readings.
structure (smiles),measurement,setting,value
"FC(F)(F)c1ccc(CNc2ccc(Cc3c[nH]c4ncccc34)cn2)cc1 [5-((1H-pyrrolo[2,3-b]pyridin-3-yl)methyl)-N-(4-(trifluoromethyl)benzyl)pyridin-2-amine]",remaining activity at 1.25 µM,[1]; Well no.=6012,104%
same,remaining activity at 3.75 µM,[2]; Well no.=6012,102%
"CN(C)c1nc(N)c(C(=O)NC(=N)N)nc1Cl [5-(N,N-Dimethyl)amiloride hydrochloride]",remaining activity at 1.25 µM,[1]; Well no.=63,102%
same,remaining activity at 3.75 µM,[2]; Well no.=63,99%
"NC(N)=NC(=O)c1nc(Cl)c(N2CCCCCC2)nc1N [5-(N,N-hexamethylene)amiloride]",remaining activity at 1.25 µM,[1]; Well no.=106,104%
same,remaining activity at 3.75 µM,[2]; Well no.=106,104%
CCN(c1nc(N)c(C(=O)NC(=N)N)nc1Cl)C(C)C [5-(N-Ethyl-N-isopropyl)amiloride],remaining activity at 1.25 µM,[1]; Well no.=203,99.7%
same,remaining activity at 3.75 µM,[2]; Well no.=203,97.3%
CC(C)CN(C)c1nc(N)c(C(=O)N=C(N)N)nc1Cl [5-(N-Methyl-N-isobutyl)amiloride],remaining activity at 1.25 µM,[1]; Well no.=209,99.9%
same,remaining activity at 3.75 µM,[2]; Well no.=209,100%
"O=C1NC(=O)C(Cc2ccc3cc(OCc4ccccc4F)ccc3c2)S1 (centres unmarked) [5-({6-[(2-fluorobenzyl)oxy]-2-naphthyl}methyl)-1,3-thiazolidine-2,4-dione]",remaining activity at 1.25 µM,[1]; Well no.=5872,104%
same,remaining activity at 3.75 µM,[2]; Well no.=5872,97.8%
NC(=O)c1[nH]cnc1N [5-Amino-3H-imidazole-4-Carboxamide],remaining activity at 1.25 µM,[1]; Well no.=7449,103%
same,remaining activity at 3.75 µM,[2]; Well no.=7449,104%
Nc1ccc(O)c(C(=O)O)c1 [5-Aminosalicylic acid],remaining activity at 1.25 µM,[1]; Well no.=2121,105%
same,remaining activity at 3.75 µM,[2]; Well no.=2121,104%
NCCCCC(=O)O [5-Aminovaleric acid hydrochloride],remaining activity at 1.25 µM,[1]; Well no.=147,103%
same,remaining activity at 3.75 µM,[2]; Well no.=147,101%
O=c1[nH]c(=O)n([C@H]2C[C@H](O)[C@@H](CO)O2)cc1Br [5-BrdU],remaining activity at 1.25 µM,[1]; Well no.=7862,96%
same,remaining activity at 3.75 µM,[2]; Well no.=7862,97.6%
O=c1[nH]c(=O)n([C@H]2C[C@H](O)[C@@H](CO)O2)cc1Br [5-Bromo-2'-deoxyuridine],remaining activity at 1.25 µM,[1]; Well no.=269,95.6%
same,remaining activity at 3.75 µM,[2]; Well no.=269,98.4%
NCCc1c[nH]c2ccc(C(N)=O)cc12 [5-Carboxamidotryptamine maleate],remaining activity at 1.25 µM,[1]; Well no.=533,104%
same,remaining activity at 3.75 µM,[2]; Well no.=533,104%
O=c1[nH]c(=O)n([C@H]2C[C@H](O)[C@@H](CO)O2)cc1Cl [5-Chloro-2'-deoxyuridine],remaining activity at 1.25 µM,[1]; Well no.=7814,101%
same,remaining activity at 3.75 µM,[2]; Well no.=7814,102%
O=C(O)c1cc2cc(F)ccc2[nH]1 [5-Fluoroindole-2-carboxylic acid],remaining activity at 1.25 µM,[1]; Well no.=339,99.4%
same,remaining activity at 3.75 µM,[2]; Well no.=339,97.9%
O=c1[nH]cc(F)c(=O)[nH]1 [5-Fluorouracil],remaining activity at 1.25 µM,[1]; Well no.=661,97.2%
same,remaining activity at 1.25 µM,[1]; Well no.=2116,95.8%
same,remaining activity at 3.75 µM,[2]; Well no.=661,98.8%
same,remaining activity at 3.75 µM,[2]; Well no.=2116,98.2%
O=c1[nH]c(=O)n([C@@H]2O[C@H](CO)[C@@H](O)[C@H]2O)cc1F [5-Fluorouridine],remaining activity at 1.25 µM,[1]; Well no.=7900,95.4%
same,remaining activity at 3.75 µM,[2]; Well no.=7900,91.5%
N[C@@H](Cc1c[nH]c2ccc(O)cc12)C(=O)O [5-Hydroxy-L-tryptophan],remaining activity at 1.25 µM,[1]; Well no.=712,91.8%
same,remaining activity at 3.75 µM,[2]; Well no.=712,98.5%
O=C(O)Cc1c[nH]c2ccc(O)cc12 [5-Hydroxyindolacetic acid],remaining activity at 1.25 µM,[1]; Well no.=758,91.7%
same,remaining activity at 3.75 µM,[2]; Well no.=758,92.8%
O=C(O)Cc1c[nH]c2ccc(O)cc12 [5-Hydroxyindole-3-acetic acid],remaining activity at 1.25 µM,[1]; Well no.=5974,102%
same,remaining activity at 1.25 µM,[1]; Well no.=7351,103%
same,remaining activity at 3.75 µM,[2]; Well no.=5974,101%
same,remaining activity at 3.75 µM,[2]; Well no.=7351,102%
O=C(O)c1ccc(CO)o1 [5-Hydroxymethyl-2-furancarboxylic acid],remaining activity at 1.25 µM,[1]; Well no.=6689,97.9%
same,remaining activity at 3.75 µM,[2]; Well no.=6689,98.1%
O=c1[nH]cc(CO)c(=O)[nH]1 [5-Hydroxymethyluracil],remaining activity at 1.25 µM,[1]; Well no.=6499,99.6%
same,remaining activity at 3.75 µM,[2]; Well no.=6499,101%
Nc1ncnc2c1c(I)cn2[C@@H]1O[C@H](CO)[C@@H](O)[C@H]1O [5-Iodotubercidin],remaining activity at 1.25 µM,[1]; Well no.=2479,100%
same,remaining activity at 3.75 µM,[2]; Well no.=2479,101%
COc1cccc2oc(-c3ccccc3)cc(=O)c12 [5-Methoxyflavone],remaining activity at 1.25 µM,[1]; Well no.=3453,92.1%
same,remaining activity at 3.75 µM,[2]; Well no.=3453,90.5%
Cc1cn([C@H]2C[C@H](O)[C@@H](CO)O2)c(=O)nc1N [5-Methyl-2'-deoxycytidine],remaining activity at 1.25 µM,[1]; Well no.=7493,104%
same,remaining activity at 1.25 µM,[1]; Well no.=7720,98.8%
same,remaining activity at 3.75 µM,[2]; Well no.=7493,105%
same,remaining activity at 3.75 µM,[2]; Well no.=7720,102%
Cc1cn([C@@H]2O[C@H](CO)[C@@H](O)[C@H]2O)c(=O)nc1N [5-Methylcytidine],remaining activity at 1.25 µM,[1]; Well no.=6585,103%
same,remaining activity at 1.25 µM,[1]; Well no.=8853,100%
same,remaining activity at 3.75 µM,[2]; Well no.=6585,104%
same,remaining activity at 3.75 µM,[2]; Well no.=8853,88.8%
Cc1cn([C@@H]2O[C@H](CO)[C@@H](O)[C@H]2O)c(=O)[nH]c1=O [5-Methyluridine],remaining activity at 1.25 µM,[1]; Well no.=6213,101%
same,remaining activity at 1.25 µM,[1]; Well no.=8891,96.6%
same,remaining activity at 3.75 µM,[2]; Well no.=6213,91.5%
same,remaining activity at 3.75 µM,[2]; Well no.=8891,98.5%
O=C(O)c1cc([N+](=O)[O-])ccc1NCCCc1ccccc1 [5-Nitro-2-(3-phenylpropylamino)benzoic acid],remaining activity at 1.25 µM,[1]; Well no.=1047,99.5%
same,remaining activity at 3.75 µM,[2]; Well no.=1047,99.3%
"CN(C)c1ccc(C2Nc3ccc4ccccc4c3C3=C2C(=O)CC(C)(C)C3)cc1Br (centres unmarked) [5-[3-bromo-4-(dimethylamino)phenyl]-2,2-dimethyl-2,3,5,6-tetrahydrobenzo[a]phenanthridin-4(1H)-one]",remaining activity at 1.25 µM,[1]; Well no.=5515,106%
same,remaining activity at 3.75 µM,[2]; Well no.=5515,106%
Nc1ncn([C@@H]2O[C@H](CO)[C@@H](O)[C@H]2O)c(=O)n1 [5-azacytidine],remaining activity at 1.25 µM,[1]; Well no.=155,95.5%
same,remaining activity at 3.75 µM,[2]; Well no.=155,96.6%
"OB1OCc2cc(F)ccc21 [5-fluoro-2,1-benzoxaborol-1(3H)-ol]",remaining activity at 1.25 µM,[1]; Well no.=5477,103%
same,remaining activity at 3.75 µM,[2]; Well no.=5477,109%
C[C@H]1O[C@@H](n2cc(F)c(=O)[nH]c2=O)[C@H](O)[C@@H]1O [5-fluoro-5'-deoxyuridine],remaining activity at 1.25 µM,[1]; Well no.=663,102%
same,remaining activity at 3.75 µM,[2]; Well no.=663,98.8%
"COc1ccc(-c2cc(=O)c3c(O)c(OC)c(OC)cc3o2)cc1O [5-hydroxy-2-(3-hydroxy-4-methoxyphenyl)-6,7-dimethoxy-4H-chromen-4-one]",remaining activity at 1.25 µM,[1]; Well no.=5983,98.6%
same,remaining activity at 3.75 µM,[2]; Well no.=5983,95.3%
